Experimental data: PubChem BioAssay AID330 (DTP/NCI, 2004)
Where “and” joins values, the source holds several entries; their conditions need not be identical. Equal entries are not always repeated. Inconclusive results and toxic doses are left out. The calls were made as follows: active = survival T/C of 150% or more; inactive = T/C below 125% in these data.

Tested on: P388 leukemia ip, CD2F1 mice, survival T/C
Experiment: NCI In Vivo Anticancer Drug Screen. Data for tumor model P388 Leukemia (intraperitoneal) in CD2F1 (CDF1) mice
Conditions: endpoint: median survival time, higher = longer survival
In short: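 Mice carrying the transplanted tumor received test compound or vehicle. Survival was recorded in each group, and the value is the treated-group measurement divided by that of the vehicle-treated control group.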

[1] = dose: 100.0 mg/kg/injection, schedule: Q04DX002 (ip), vehicle: Klucel (hydroxypropylcellulose) (HPC)
[2] = dose: 200.0 mg/kg/injection, schedule: Q04DX002 (ip), vehicle: Klucel (hydroxypropylcellulose) (HPC)
[3] = dose: 50.0 mg/kg/injection, schedule: Q04DX003 (ip), vehicle: saline with Tween-80
[4] = dose: 50.0 mg/kg/injection, schedule: Q01DX005 (ip), vehicle: saline with Tween-80
[5] = dose: 100.0 mg/kg/injection, schedule: Q01DX005 (ip), vehicle: saline with Tween-80
[6] = dose: 200.0 mg/kg/injection, schedule: Q01DX005 (ip), vehicle: saline with Tween-80
[7] = dose: 60.0 mg/kg/injection, schedule: Q01DX005 (ip), vehicle: saline with Tween-80
[8] = dose: 120.0 mg/kg/injection, schedule: Q01DX005 (ip), vehicle: saline with Tween-80
[9] = dose: 240.0 mg/kg/injection, schedule: Q01DX005 (ip), vehicle: saline with Tween-80
[10] = dose: 50.0 mg/kg/injection, schedule: Q01DX009 (ip), vehicle: saline
[11] = dose: 100.0 mg/kg/injection, schedule: Q01DX009 (ip), vehicle: saline
[12] = dose: 50.0 mg/kg/injection, schedule: Q01DX005 (ip), vehicle: Klucel (hydroxypropylcellulose) (HPC)
[13] = dose: 100.0 mg/kg/injection, schedule: Q01DX005 (ip), vehicle: Klucel (hydroxypropylcellulose) (HPC)
[14] = dose: 200.0 mg/kg/injection, schedule: Q01DX005 (ip), vehicle: Klucel (hydroxypropylcellulose) (HPC)
[15] = dose: 50.0 mg/kg/injection, schedule: Q01DX009 (ip), vehicle: Klucel (hydroxypropylcellulose) (HPC)
[16] = dose: 100.0 mg/kg/injection, schedule: Q01DX009 (ip), vehicle: Klucel (hydroxypropylcellulose) (HPC)
[17] = dose: 200.0 mg/kg/injection, schedule: Q01DX009 (ip), vehicle: saline
[18] = dose: 12.5 mg/kg/injection, schedule: Q01DX009 (ip), vehicle: saline with Tween-80
[19] = dose: 25.0 mg/kg/injection, schedule: Q01DX009 (ip), vehicle: saline with Tween-80
[20] = dose: 50.0 mg/kg/injection, schedule: Q01DX009 (ip), vehicle: saline with Tween-80
[21] = dose: 100.0 mg/kg/injection, schedule: Q01DX009 (ip), vehicle: saline with Tween-80

Measured: T/C

O=C(NC(Cc1ccccc1)C(=O)O)c1cccnc1 (stereo unspecified)
inactive: dose: 25.0 mg/kg/injection, schedule: Q04DX002 (ip), vehicle: Klucel (hydroxypropylcellulose) (HPC) 100 % of control | dose: 52.0 mg/kg/injection, schedule: Q04DX002 (ip), vehicle: Klucel (hydroxypropylcellulose) (HPC) 102 % of control | [1] 96 % of control | [2] 100 % of control

Nc1ccn(C2CC(O)C(CO)O2)c(=O)n1 (stereo unspecified)
inactive: dose: 4.6 mg/kg/injection, schedule: Q01DX009 (ip), vehicle: water 95 % of control | dose: 9.38 mg/kg/injection, schedule: Q01DX009 (ip), vehicle: water 100 % of control | dose: 18.75 mg/kg/injection, schedule: Q01DX009 (ip), vehicle: water 105 % of control and 87 % of control | dose: 37.5 mg/kg/injection, schedule: Q01DX009 (ip), vehicle: water 112 % of control | dose: 75.0 mg/kg/injection, schedule: Q01DX009 (ip), vehicle: water 96 % of control | dose: 150.0 mg/kg/injection, schedule: Q01DX009 (ip), vehicle: water 103 % of control

CC(C)OC(=O)Nc1nc2ccc(C(=O)OC(C)C)cc2[nH]1
inactive: [3] 102 % of control | dose: 100.0 mg/kg/injection, schedule: Q04DX003 (ip), vehicle: saline with Tween-80 104 % of control and 116 % of control | dose: 200.0 mg/kg/injection, schedule: Q04DX003 (ip), vehicle: saline with Tween-80 112 % of control and 113 % of control

CC(C)(C)c1cc(/C2=c3\cc/c([n-]3)=C(\c3cc(C(C)(C)C)c(O)c(C(C)(C)C)c3)c3ccc([n-]3)/C(c3cc(C(C)(C)C)c(O)c(C(C)(C)C)c3)=c3/cc/c([n-]3)=C(\c3cc(C(C)(C)C)c(O)c(C(C)(C)C)c3)c3ccc2[n-]3)cc(C(C)(C)C)c1O.[Zn]
inactive: dose: 100.0 mg/kg/injection, schedule: Q04DX002 (ip), vehicle: saline with Tween-80 97 % of control | dose: 200.0 mg/kg/injection, schedule: Q04DX002 (ip), vehicle: saline with Tween-80 88 % of control | dose: 400.0 mg/kg/injection, schedule: Q04DX002 (ip), vehicle: saline with Tween-80 90 % of control

COc1ccc2c(c1)OCCN(C)C2c1ccccc1 (stereo unspecified)
inactive: [4] 97 % of control | [5] 99 % of control | [6] 99 % of control

Cc1ccc(S(=O)(=O)OCC2(COS(=O)(=O)c3ccc(C)cc3)CCC2)cc1
inactive: [7] 102 % of control | [8] 100 % of control | [9] 100 % of control

CCC(=O)NC(CC(C)C)C(=O)NC(CC(C)C)C(=O)NC(C=O)CCCN=C(N)N (stereo unspecified) (tested in a mixture with another compound)
inactive: dose: 6.25 mg/kg/injection, schedule: Q01DX009 (ip), vehicle: saline 103 % of control | dose: 12.5 mg/kg/injection, schedule: Q01DX009 (ip), vehicle: saline 102 % of control and 104 % of control | dose: 25.0 mg/kg/injection, schedule: Q01DX009 (ip), vehicle: saline 104 % of control and 96 % of control | [10] 102 % of control and 108 % of control | [11] 110 % of control

C/C(=N\N=C(N)N)c1ccc(-c2ccccc2)cc1
inactive: dose: 25.0 mg/kg/injection, schedule: Q04DX002 (ip), vehicle: saline with Tween-80 111 % of control | dose: 50.0 mg/kg/injection, schedule: Q04DX002 (ip), vehicle: saline with Tween-80 109 % of control

CN(C)c1ccc(C(=C2C=CC(=[N+](C)C)C=C2)c2ccc(N(C)C)cc2)cc1
inactive: dose: 0.19 mg/kg/injection, schedule: Q01DX009 (ip), vehicle: saline 108 % of control | dose: 0.39 mg/kg/injection, schedule: Q01DX009 (ip), vehicle: saline 123 % of control

COc1cc2c(OC)cc1CCC1=CC(=O)C=C(CC2)C1=O
inactive: [4] 99 % of control | [5] 103 % of control | [6] 92 % of control

Cc1cc(-c2c(C)[nH]n(-c3cc(C)c4cc(F)ccc4n3)c2=O)n(-c2cc(C)c3cc(F)ccc3n2)n1
inactive: [7] 102 % of control | [8] 101 % of control | [9] 98 % of control

CC(=O)N(CC1OC2OC(C)(C)OC2C2OC(C)(C)OC12)N=Nc1ccc([N+](=O)[O-])cc1 (stereo unspecified)
inactive: [12] 100 % of control | [13] 89 % of control | [14] 91 % of control

COC(=O)c1cccc2c[n+]3c(cc12)-c1[nH]c2cc(OC)ccc2c1CC3
inactive: [4] 100 % of control | [5] 99 % of control | [6] 108 % of control

COc1cc2ccc(CCNCc3ccccc3)cc2cc1OC
inactive: dose: 12.5 mg/kg/injection, schedule: Q01DX009 (ip), vehicle: Klucel (hydroxypropylcellulose) (HPC) 95 % of control | dose: 25.0 mg/kg/injection, schedule: Q01DX009 (ip), vehicle: Klucel (hydroxypropylcellulose) (HPC) 94 % of control | [15] 95 % of control | [16] 90 % of control

O=C1NC(=O)C2(Br)Nc3ccc(Br)cc3C(=O)C2N1 (stereo unspecified)
inactive: [12] 100 % of control | [13] 98 % of control | [14] 90 % of control

COc1ccc(S(=O)(=O)c2coc3ccccc3c2=O)cc1
inactive: [7] 110 % of control | [8] 103 % of control | [9] 96 % of control

O=[N+]([O-])c1cccnc1Sc1nc2ccccc2[nH]1
inactive: [10] 96 % of control | [11] 101 % of control | [17] 101 % of control

N#C/C(N)=C(\C#N)N=Cc1ccc(N(CCCl)CCCl)cc1
inactive: [4] 100 % of control | [5] 104 % of control | [6] 92 % of control

Cc1[nH]c(N)nc(=S)c1CCCOc1ccc([N+](=O)[O-])cc1
inactive: [7] 99 % of control | [8] 93 % of control | [9] 97 % of control

COC(=O)C1=C(C)NC2(C)SC1C(C)C2C(=O)OC (stereo unspecified)
inactive: [18] 92 % of control and 93 % of control | [19] 101 % of control and 93 % of control | [20] 90 % of control and 97 % of control | [21] 87 % of control and 90 % of control

CCOCC(=O)OC
inactive: [10] 97 % of control | [11] 95 % of control | [17] 100 % of control

CCN(CC)C(=O)OC1Cc2ccccc2CCc2ccccc2C1
inactive: dose: 100.0 mg/kg/injection, schedule: Q04DX003 (ip), vehicle: Klucel (hydroxypropylcellulose) (HPC) 103 % of control | dose: 200.0 mg/kg/injection, schedule: Q04DX003 (ip), vehicle: Klucel (hydroxypropylcellulose) (HPC) 101 % of control | dose: 400.0 mg/kg/injection, schedule: Q04DX003 (ip), vehicle: Klucel (hydroxypropylcellulose) (HPC) 101 % of control

CCCCNc1ncnc2[nH]ncc12
inactive: [18] 100 % of control | dose: 12.5 mg/kg/injection, schedule: Q04DX003 (ip), vehicle: saline with Tween-80 90 % of control | [19] 110 % of control | dose: 25.0 mg/kg/injection, schedule: Q04DX003 (ip), vehicle: saline with Tween-80 95 % of control | [20] 105 % of control | [3] 90 % of control

C=C1C(C2=NCCN2O)OC2OC(C)(C)OC12 (stereo unspecified)
inactive: [1] 98 % of control | [2] 103 % of control | dose: 400.0 mg/kg/injection, schedule: Q04DX002 (ip), vehicle: Klucel (hydroxypropylcellulose) (HPC) 97 % of control

O=P(Oc1ccccc1)(Oc1ccccc1)C(Nc1ccc(C(F)(F)F)cc1)c1ccccc1 (stereo unspecified)
inactive: [15] 99 % of control | [16] 93 % of control | dose: 200.0 mg/kg/injection, schedule: Q01DX009 (ip), vehicle: Klucel (hydroxypropylcellulose) (HPC) 86 % of control

COc1ccccc1N=Nc1cccc[c]1[Hg][Cl]
inactive: dose: 9.0 mg/kg/injection, schedule: Q01DX009 (ip), vehicle: saline 107 % of control and 113 % of control and 118 % of control | dose: 18.0 mg/kg/injection, schedule: Q01DX009 (ip), vehicle: saline 114 % of control and 119 % of control | dose: 36.0 mg/kg/injection, schedule: Q01DX009 (ip), vehicle: saline 102 % of control and 113 % of control

CC1(c2ccco2)NC(=O)N(Cl)C1=O (stereo unspecified)
inactive: dose: 100.0 mg/kg/injection, schedule: Q04DX003 (ip), vehicle: saline 104 % of control | dose: 200.0 mg/kg/injection, schedule: Q04DX003 (ip), vehicle: saline 90 % of control

COc1ccc(C(=O)C(CCC(=O)/C=C/c2ccccc2)S(C)(=O)=O)cc1 (stereo unspecified)
inactive: [12] 105 % of control | [13] 99 % of control | [14] 87 % of control

CCSC(=N)N=Nc1ccc(O)cc1
inactive: [19] 100 % of control | [20] 99 % of control | [21] 99 % of control | dose: 200.0 mg/kg/injection, schedule: Q01DX009 (ip), vehicle: saline with Tween-80 93 % of control
